Test [1] concerns platelets. The experiment in a line: In vitro platelet aggregation by various inducers, guinea pig platelets. Particulars: Cavia porcellus. The class given is cell-based. An excerpt: (§1) Next, the suppression of platelet aggregation by the compounds of the present invention was studied in the same manner as described above with the use of not only collagen, but also arachidonic acid, ADP, thrombin, serotonin, epinephrine and U46619 (pseudo-thromboxane A2 substance) as inducers.
(§2) As platelets, platelets prepared from rats and guinea pigs as well as rabbits were also used.
(§3) Collagen and ADP were purchased from MCM, and used in accordance with the method of preparation described in the manuals attached to the purchased products. Serotonin, epinephrine and thrombin were purchased from Sigma, and used as solutions in physiological saline for injection (Otsuka Pharmaceutical Factory). Arachidonic acid was purchased from Cayman, and dispersed in physiological saline for injection (Otsuka Pharmaceutical Factory) with the use of an immersion type ultrasonic oscillator (US150, NIPPON SEIKI, tip end diameter ca. 3.5 mm). U46619 (pseudo-thromboxane substance) was purchased from FUNAKOSHI, and dissolved in physiological saline for injection (Otsuka Pharmaceutical Factory) when used.
(§4) Collagen (0.1 to 1 μg/ml), arachidonic acid (1 mM), ADP (1 μM), thrombin (1 U/ml), serotonin (100 μM), epinephrine (100 to 200 μM), and U46619 (3 μM) were used.
(§5) Indomethacin was used as a positive control for measuring the suppression of platelet aggregation induced by collagen.

In test [2] the test system is platelets. As to the kind of experiment: Ex vivo platelet aggregation after oral administration. Particulars: 10, 1 or 0.1 mg/kg oral single dose, rats, blood 2 hours after administration, collagen 2 to 4 μg/ml. The format is in vivo, rat. The procedure:
Compound 2 in a dose of 10, 1 or 0.1 mg/kg was orally administered, as a single dose, to rats with the use of a probe needle. A solvent (physiological saline) was administered as a control.
The blood was withdrawn 2 hours after administration, and platelets were prepared from the blood. Platelet aggregation was induced by 2 to 4 μg/ml of collagen using the platelets. The preparation of platelets and the measurement of the aggregation rate were performed in the same manner as in Test Example 1.

Test [3] has as its system platelets. As to the kind of experiment: In vitro platelet aggregation by various inducers, rat platelets. The format is cell-based. Particulars: Rattus norvegicus.
Excerpt: as §1, §2, §3, §4, §5

In test [4] the test system is rat middle cerebral artery obstruction. The experiment in a line: Photosensitization-induced rat middle cerebral artery obstruction model. The class given is in vivo. Particulars: 1 mg/kg intravenous after laser irradiation, evaluated 24 hours after. As for the experimental part: A photosensitization-induced rat middle cerebral artery obstruction model, widely used as a cerebral infarction acute phase/chronic phase model, was used to investigate the effect of the compounds of the present invention on an in vivo circulatory disorder pathophysiological model.
After rats were intravenously injected with a rose bengal dye (20 mg/kg), the middle cerebral artery was irradiated with green laser light (wavelength 540 nm) for 10 minutes to induce arterial infarction due to active oxygen species. After completion of irradiation with laser light, Compound 2 was intravenously administered.
A solvent (physiological saline) was intravenously administered as a control.
The progress of cerebral infarction was observed 24 hours after laser light irradiation. A transverse section (1 mm in thickness) of the brain exenterated was prepared, and soaked in triphenyltetrazolium to stain living tissue red. An infarct was white, and was clearly distinguished from the living tissue. Thus, the area of the infarct was measured, and the infarct rate (the proportion of the area of the infarct to the transverse section of the brain) was calculated for use in evaluation.

Test [5] concerns platelets. As to the kind of experiment: Collagen-induced in vitro platelet aggregation (rabbit PRP, transmittance). The format is cell-based. The conditions noted are these: Oryctolagus cuniculus, Platelet, read-out: 50% Inhibition Point for Platelet Aggregation, IC50. The procedure:
Collagen-induced in vitro Platelet Aggregation
It was studied whether the compounds of the present invention would inhibit platelet aggregation induced by collagen.
These compounds were each diluted with physiological saline to end concentrations of 1×10^−7M, 3×10^−7M, 1×10^−6M, 3×10^−6M, 1×10^−5M, 3×10^−5M and 1×10^−4M.
Indomethacin was used as a positive control. Indomethacin was dissolved in methanol, and then diluted with physiological saline to end concentrations of 1×10^−6M, 3×10^−6M and 1×10^−5M.
Physiological saline was used as a negative control.
The tube was centrifuged at 900 rpm for 10 minutes at room temperature to separate the supernatant (PRP, platelet rich plasma fraction). The residue was further centrifuged for 15 minutes at 2,500 rpm to obtain the supernatant (PPP, platelet poor plasma fraction).
PPP (platelet poor plasma fraction) was placed in a cuvette, and the cuvette was mounted in a 37° C. incubator for PPP of an aggregometer (Hematracer 240 12ch, manufactured by MCM). Then, 200 μl of PRP (platelet rich plasma fraction) was added into a cuvette, and the cuvette was mounted in a reactor for PRP. With stirring by a magnetic stirrer, the transmittance of PPP was corrected to T650 nm=100%, and the transmittance of PRP was corrected to T650 nm=0%, by automatic adjustment for 30 seconds.
The study substance (20 μl) at a predetermined concentration was added into the cuvette and, 30 seconds later, 20 μl (end concentration 0.2 μg/ml) of collagen (produced by MCM) was added. Subsequent changes in the transmittance were recorded for 5 minutes. When the platelets are aggregated, the transmittance increases. When aggregation peaked, the transmittance T at maximum aggregation was compared with the transmittance T0 of the negative control, and the aggregation inhibition rate was expressed as percentage using the following equation: Aggregation inhibition rate=(1−T/T0)×100
From an aggregation inhibition curve obtained, a regression equation was derived by approximation of the linear type.

In test [6] the test system is platelets. The experiment in a line: In vitro platelet aggregation by various inducers, rabbit platelets. The class given is cell-based. The conditions noted are these: for IC50: Oryctolagus cuniculus, Platelet, rabbit platelets, read-out: 50% inhibition point, IC50, for in vitro platelet aggregation.
Excerpt: as §1, §2, §3, §4, §5

For `CC/C=C\C/C=C\C/C=C\C/C=C\C/C=C\C/C=C\CCC(=O)NCCC1CCCN1C` (racemic) [Compound 2, (4Z,7Z,10Z,13Z,16Z,19Z)-N-[2-(1-methylpyrrolidin-2-yl)ethyl]docosahexaenoamide], the IC50 in the test with platelets [1] (read-out: 50% aggregation inhibition point, collagen-induced aggregation, guinea pig platelets) was ~9 µM; in the test on platelets [1] (read-out: 50% inhibition point, IC50, for in vitro platelet aggregation, inducer ADP (1 μM), guinea pig platelets), 65 ± 19 µM; with platelets [1] (read-out: 50% inhibition point, IC50, for in vitro platelet aggregation, inducer collagen (0.1 to 1 μg/ml), guinea pig platelets) it was 9 ± 6 µM; in the test on platelets [1] (read-out: 50% inhibition point, IC50, for in vitro platelet aggregation, inducer thrombin (1 U/ml), guinea pig platelets), > 100 µM; in the test with platelets [3] (read-out: 50% aggregation inhibition point, collagen-induced aggregation, rat platelets) it was ~11 µM; with platelets [3] (read-out: 50% inhibition point, IC50, for in vitro platelet aggregation, inducer ADP (1 μM), rat platelets), > 100 µM. Also, the IC50 is 11 ± 7 µM in the test with platelets [3] (read-out: 50% inhibition point, IC50, for in vitro platelet aggregation, inducer collagen (0.1 to 1 μg/ml), rat platelets); 1.5 µM in the test with platelets [5]; > 100 µM in the test on platelets [6] (inducer ADP (1 μM)); 50 ± 10 µM in the test on platelets [6] (inducer U46619 (3 μM)); > 100 µM with platelets [6] (inducer arachidonic acid (1 mM)); 2.1 ± 0.8 µM in the test on platelets [6] (inducer collagen (0.1 to 1 μg/ml)). For the same compound, the “ex vivo platelet aggregation after oral administration (in words)” value in the test on platelets [2] is reported as “potently suppressed”. Further, in test [4], the “cerebral infarction, infarct rate (in words)” value is listed as “ameliorate cerebral infarction”. In addition, in the test on platelets [6] (platelets from the rabbit, the rat or the guinea pig), the “inhibition of platelet aggregation induced by arachidonic acid, ADP and thrombin (in words)” value is recorded as “either did not inhibit platelet aggregation, or even when it inhibited platelet aggregation, its degree of inhibition was very low”.

These data come from patent publication US6949553B2, “Aliphatic compounds, their synthesis method, and utilization of the same” (Maruha Corporation, priority 2001, dated 2005).
